Laboratory results taken from US6900210B2, “Pyridinyl, pyrimidinyl and pyrazinyl amides as potassium channel openers” (Bristol-Myers Squibb Company, priority 2002, dated 2005).

Experiments:
mKCNQ2 channels = biological target: T1, mKCNQ2 channels (Mus musculus, UniProt Q9Z351); assay: Whole-cell patch-clamp recordings of mKCNQ2 currents; format: cell-based; details: HEK 293 stable cell line expressing mKCNQ2; for EC50: @ −40 mV, room temperature; for Imax (%): maximal current from Hill-type fit
T1 construct: expressed in transfected cells
Procedure: Whole-cell patch-clamp recordings were made from an HEK 293 stable cell line expressing mKCNQ2 channels, maintained in culture for 1-2 days. Patch pipettes had initial resistances of 2.5-4 MQ. Currents were recorded with an EPC9 amplifier (HEKA, Lambrecht, Germany) controlled with software (Pulse, HEKA) run on a standard lab PC. Series resistance compensation was used during current recording, and set at 80%. The series resistance (R) and cell capacitance (C) were determined electronically by subtracting the capacitive currents at the onset and offset of a 5 mV voltage step. The cancellation of wholecell capacitive transients was virtually complete in all cells. Analog current signals were low-pass filtered at 2.9 kHz using a four-pole Bessel filter −3 dB) and stored on a local network server computer at a sampling rate of 1.5 kHz. All recordings were performed at room temperature (20-22° C.). The pipette solution contained (mM): KCl, 150; CaCl2, 2.5; EGTA, 5; MgCl2, 1; HEPES, 10; pH to 7.3 with KOH, and Osmolality of 290-300 mOsm. The extracellular solution contained (mM): NaCl, 140; KCl, 2.5; CaCl2, 2.5; MgCl2, 1; glucose, 10; HEPES, 10; pH to 7.3 with NaOH, and Osmolality of 305-310 mOsm
Concentration response data were generated by measuring the difference in the steady-state amplitude of current in the presence of compound at the end of a 600 ms voltage-clamp step from a holding potential of −80 mV. The concentration-response data were fitted with Hill-type equations: I=Imax/(1+EC50/[A]^nH), where I is the steady-state current at a given concentration of agonist [A]; and Imax, EC50 and nH are parameters estimated from the curve fit. In some cases the concentration-response data were fitted with equations consisting of the sum of two Hill-type components. Current-voltage (IN) relationships for agonist-evoked currents were obtained by performing 600 ms voltage steps (−110 mV to +40 mV) in the absence and presence of agonist.

[1] = system: nerve injury-induced tactile allodynia; assay: Chung model of neuropathic pain (Chung surgery and von Frey test); format: in vivo, Sprague Dawley rats; details: i.v., rat, von Frey thresholds over 90 min, % MPE (Drug AUC) − % MPE (Vehicle AUC)
Procedure: To test agents for activity against peripheral mononeuropathy nerve injury-induced tactile allodynia, male Sprague Dawley rats (wt. 120-160 g) were surgically prepared with unilateral tight ligation of spinal nerves L5 and L6 following the method of Kim and Chung (Kim S. H., Chung J. M. (1992) Pain, September; 50(3):355-63). After 3-4 weeks recovery, paw withdrawal to light touch was assessed as described by Chaplan et al. (Chaplan S. R., et al., (1994) J. Neurosci Methods, July; 53(1):55-63). In brief, rats are placed in a plastic cage with a wire mesh bottom and allowed to acclimate for 15-30 minutes, until cage exploration and grooming stops. […] After acclimation, baseline von Frey thresholds were assessed for the injured hindpaw at −15 min. […] Following drug administration, von Frey thresholds are measured at 15, 30, 60 and 90 min. Data were analyzed by a 2-way repeated measures analysis of variance followed by Dunnett's test (p<0.05). […]
Reversal of neuropathic pain behavior may be expressed as a percentage (0-100%) of the maximum possible effect, over and above the vehicle effects. […]
For example, a compound which immediately reversed neuropathic pain behavior to normal levels, such that animals only responded to the highest von Frey filament (15 g), and maintained normal levels through out the post-drug testing period (90 min) would be calculated as Δ% MPE=100%.

T1 sequence (Q9Z351 whole entry): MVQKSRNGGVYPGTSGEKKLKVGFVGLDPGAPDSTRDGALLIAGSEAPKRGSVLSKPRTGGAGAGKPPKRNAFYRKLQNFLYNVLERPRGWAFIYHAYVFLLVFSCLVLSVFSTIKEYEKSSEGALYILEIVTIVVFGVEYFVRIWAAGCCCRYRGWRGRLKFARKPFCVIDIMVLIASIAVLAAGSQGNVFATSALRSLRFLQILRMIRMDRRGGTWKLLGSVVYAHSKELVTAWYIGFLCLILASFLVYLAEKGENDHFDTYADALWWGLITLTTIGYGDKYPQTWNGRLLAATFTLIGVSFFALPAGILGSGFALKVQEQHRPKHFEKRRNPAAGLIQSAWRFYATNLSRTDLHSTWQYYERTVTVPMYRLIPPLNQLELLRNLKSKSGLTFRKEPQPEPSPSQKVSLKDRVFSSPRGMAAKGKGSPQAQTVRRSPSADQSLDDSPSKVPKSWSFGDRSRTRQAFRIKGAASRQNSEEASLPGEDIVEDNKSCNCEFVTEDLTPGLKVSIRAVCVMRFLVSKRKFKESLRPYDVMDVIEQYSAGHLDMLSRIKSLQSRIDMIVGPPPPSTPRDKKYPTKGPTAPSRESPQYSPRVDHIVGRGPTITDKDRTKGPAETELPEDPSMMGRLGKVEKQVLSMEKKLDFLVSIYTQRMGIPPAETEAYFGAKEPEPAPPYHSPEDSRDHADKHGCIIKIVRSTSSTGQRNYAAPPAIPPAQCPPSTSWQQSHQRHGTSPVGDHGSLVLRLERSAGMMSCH

Row | Molecule | EC50 (mKCNQ2 channels) [µM] | Imax (%) (mKCNQ2 channels) | AUC (Δ % MPE) ([1]; 10 mg/kg) | AUC (Δ % MPE) ([1]; 100 mg/kg)
1 | C[C@H](NC(=O)/C=C/c1cc(F)ccc1F)c1cccc(Oc2ccccn2)c1 [Example 9, (S)-3-(2,5-Difluoro-phenyl)-N-{1-[3-(pyridin-2-yl-oxy)-phenyl]-ethyl}-acryl-amide] | 0.0012 | 200 |  | 
2 | C[C@H](NC(=O)/C=C/c1ccccc1F)c1cccc(Oc2cccnc2)c1 [Example 15, (S)-3-(2-Fluoro-phenyl)-N-{1-[3-(py-ridin-3-yloxy)-phen-yl]-ethyl}-acrylamide] | 0.198 | 812 | 47 (10 mg/kg, i.v.) Δ % MPE | 
3 | C[C@H](NC(=O)/C=C/c1cc(F)ccc1F)c1cccc(Oc2ccncc2)c1 [Example 45, (S)-3-(2,5-Difluoro-phenyl)-N-{1-[3-(pyridin-4-yl-oxy)-phenyl]-ethyl}-acryl-amide] | 0.11 | 784 |  | 
4 | NCC1(CC(=O)O)CCCCC1 [Gabapentin, gabapentin, reference compound] |  |  |  | 50 (100 mg/kg, i.v.) Δ % MPE
5 | (S)-4-Phenyl)-N-[1-(3-py- ridin-3-yl-phenyl)-eth- yl]-butyramide [Example 25] | 0.001 | 172 |  | 
